Data as given in patent US12486280B2, “CDK inhibitors and uses thereof” (California Institute of Technology, priority 2018, dated 2025).
Values after ≈ are worked out from the molar mass of the structure shown. Where two headings read alike, the source gives them in different places.

Key:
[1] = test system: CYP isozymes (IC50s averaged over the isozymes); assay: CYP Enzymatic Inhibition Assay in human liver microsomes
[2] = test system: drug-resistant cell lines of Table 2 (NCI-H1437, OV207, HCC1806, NCI-H2172); assay: Cell Line Growth Retardation Assay, resistant cohort; format: cell-based, human; conditions: Homo sapiens, […], geometric mean over resistant cohort; 6 days growth; read-out: AvgResIC50
How it was run: (§1)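 Cells rested 24 h, then exposed 6 days to compound at 10, 2, 0.4, 0.08, 0.016 and 0.0032 μM; counted by imaging on day 0 and day 6. Growth inhibition as ratio of population doublings versus vehicle; IC50 from curve fits, cohort values as geometric means.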

[3] = target: CDK4 (Homo sapiens (Human), UniProt P11802); assay: Cdk4 and 6 Enzymatic Inhibition Assay (radiometric 33PanQinase, Ki determination); format: biochemical
How it was run: (§2)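 Radiometric 33PanQinase assay in 70 mM HEPES-NaOH pH 7.5 with 3 mM MgCl2, 3 mM MnCl2, [γ-33P]-ATP, kinase and substrate; 60 min at 30° C, 1% DMSO final. Ten final concentrations from 2×10^−6 M to 6×10^−11 M; 33Pi incorporation counted by scintillation after H3PO4 stop.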

[4] = target: CDK6 (Homo sapiens (Human), UniProt Q00534); assay: as above; format: biochemical
How it was run: as §2

[5] = Compound Solubility Assay (kinetic solubility); format: physicochemical; conditions: kinetic from dmso stock
Description: The relative kinetic solubility of each compound was determined at both low (1.2) and neutral (7.4) pH. Compounds were prepared at 10 mM stocks. […] Compounds were allowed to shake at room temperature for 24 hours in 50 mM phosphate buffer pH 7.4, or in SGF buffer pH 1.2 at 37° C. for 24 hours.

[6] = target: hERG potassium channels (Homo sapiens (Human), UniProt Q12809); assay: hERG Inhibition Assay (QPatch automated patch clamp, CHO cells); conditions: percent of control current
Description: Effects of compounds on hERG potassium channel conductance was assessed using the automated patch clamp method QPatch^HTX. Compounds were prepared at 10 mM stocks. CHO cells stably expressing hERG potassium channels were used for this assay. Cells were cultured in a humidified and air-controlled 5% CO2) incubator at 37° C. Compound stocks and the positive control Amitriptyline were dissolved in 100% DMSO to make various solution concentrations. These solutions were further diluted into extracellular solution to achieve final concentrations for testing. The final DMSO concentration in extracellular solution was 0.30%. The hERG QPatch^HTX assay was conducted at room temperature.
The following voltage command protocol was used: • From the holding potential of −80 mV, the voltage was first stepped to −50 mV for 80 ms for leak subtraction, and then stepped to +20 mV for 4,800 ms to open hERG channels. • After which, the voltage was stepped back down to −50 mV for 5,000 ms, causing a “rebound” or tail current, which was measured and collected for data analysis. • Finally, the voltage was stepped back to the holding potential of −80 mV for 3,100 ms.
For each experiment, three additions of 5 μL of the vehicle were applied, followed by 30 runs of the voltage command protocol for a baseline period. Then, the ascending doses of each compound were added with three repetitions (5 μL of compound each time).

[7] = Caco-2 Assay (Papp A to B); conditions: human, Caco-2, pH 7.4
Description: The degree of bi-directional human intestinal permeability for compounds was estimated using a Caco-2 cell permeability assay. Caco-2 cells were seeded onto polyethylene membranes in 96-well plates. The growth medium was refreshed every 4 to 5 days until cells formed a confluent cell monolayer. HBSS with 10 mM HEPES at pH 7.4 was used as the transport buffer. Compounds were tested at 2 μM bi-directionally in duplicate. Digoxin, nadolol and metoprolol were included as standards. Digoxin was tested at 10 μM bi-directionally in duplicate, while nadolol and metoprolol were tested at 2 μM in the A to B direction in duplicate. The final DMSO concentration was adjusted to less than 1% for all experiments. The plate was incubated for 2 hours in a CO2 incubator at 37° C., with 5% CO2 at saturated humidity. After incubation, all wells were mixed with acetonitrile containing an internal standard, and the plate was centrifuged at 4,000 rpm for 10 minutes. 100 μL supernatant was collected from each well and diluted with 100 μL distilled water for LC/MS/MS analysis. Concentrations of test and control compounds in starting solution, donor solution, and receiver solution were quantified by LC/MS/MS, using peak area ratio of analyte/internal standard. The apparent permeability coefficient Papp (cm/s) was calculated using the equation: Papp=(dCr/dt)×Vr/(A×C0) Where dCr/dt is the cumulative concentration of compound in the receiver chamber as a function of time (μM/s); Vr is the solution volume in the receiver chamber (0.075 mL on the apical side, 0.25 mL on the basolateral side); A is the surface area for the transport, which is 0.0804 cm^2 for the area of the monolayer; C0 is the initial concentration in the donor chamber (μM).

[8] = Measurement of Compound Metabolic Stability in hepatocytes
[9] = test system: drug-sensitive cell lines of Table 2 (EFM-19, MDA-MB-453, T-47D, ZR-75-1, NCI-H441, OVTOKO, NCI-H1838); assay: Cell Line Growth Retardation Assay, sensitive cohort; format: cell-based, human; conditions: for IC50: Homo sapiens, geometric mean over sensitive cohort, 6 days growth, read-out: AvgSensIC50; for Ther Window: average IC50 drug-resistant group divided by average IC50 drug-sensitive group
How it was run: as §1

[10] = 50 mM phosphate buffer, pH 7.4, aqueous buffer, read-out: KS7
[11] = simulated gastric fluid, kinetic solubility, SGF buffer pH 1.2, 37° C., 24 hours, read-out: KS1

Chain of CDK6 (Q00534 whole entry): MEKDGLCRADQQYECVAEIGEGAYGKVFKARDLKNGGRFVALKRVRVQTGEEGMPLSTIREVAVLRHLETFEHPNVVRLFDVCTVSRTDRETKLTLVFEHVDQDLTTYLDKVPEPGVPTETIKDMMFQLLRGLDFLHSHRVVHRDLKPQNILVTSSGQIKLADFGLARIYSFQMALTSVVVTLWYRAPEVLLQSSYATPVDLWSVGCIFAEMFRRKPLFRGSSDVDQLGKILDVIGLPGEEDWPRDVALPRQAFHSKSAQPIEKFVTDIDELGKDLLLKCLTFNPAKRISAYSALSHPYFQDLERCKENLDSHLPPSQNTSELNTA
Chain of CDK6 (P24385 whole entry partner): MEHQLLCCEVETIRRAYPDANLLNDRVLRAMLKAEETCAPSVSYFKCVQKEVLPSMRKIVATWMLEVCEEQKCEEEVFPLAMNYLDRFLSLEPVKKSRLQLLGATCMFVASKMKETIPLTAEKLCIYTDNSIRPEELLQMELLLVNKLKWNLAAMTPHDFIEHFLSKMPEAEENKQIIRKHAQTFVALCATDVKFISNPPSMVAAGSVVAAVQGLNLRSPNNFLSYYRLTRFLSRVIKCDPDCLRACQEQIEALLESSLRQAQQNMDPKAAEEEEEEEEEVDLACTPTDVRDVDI
Chain of CDK4 (P11802 whole entry): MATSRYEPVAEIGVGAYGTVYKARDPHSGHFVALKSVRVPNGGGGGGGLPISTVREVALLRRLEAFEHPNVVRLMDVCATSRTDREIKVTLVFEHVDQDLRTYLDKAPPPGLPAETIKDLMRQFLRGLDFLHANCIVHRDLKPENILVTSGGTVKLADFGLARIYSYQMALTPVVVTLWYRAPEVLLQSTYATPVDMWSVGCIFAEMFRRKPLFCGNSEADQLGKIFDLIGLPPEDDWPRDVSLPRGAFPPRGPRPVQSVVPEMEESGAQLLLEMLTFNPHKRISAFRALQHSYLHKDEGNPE
Chain of CDK4 (P24385 whole entry partner): as the sequence (P24385 whole entry partner) above
Chain of hERG potassium channels (Q12809 whole entry): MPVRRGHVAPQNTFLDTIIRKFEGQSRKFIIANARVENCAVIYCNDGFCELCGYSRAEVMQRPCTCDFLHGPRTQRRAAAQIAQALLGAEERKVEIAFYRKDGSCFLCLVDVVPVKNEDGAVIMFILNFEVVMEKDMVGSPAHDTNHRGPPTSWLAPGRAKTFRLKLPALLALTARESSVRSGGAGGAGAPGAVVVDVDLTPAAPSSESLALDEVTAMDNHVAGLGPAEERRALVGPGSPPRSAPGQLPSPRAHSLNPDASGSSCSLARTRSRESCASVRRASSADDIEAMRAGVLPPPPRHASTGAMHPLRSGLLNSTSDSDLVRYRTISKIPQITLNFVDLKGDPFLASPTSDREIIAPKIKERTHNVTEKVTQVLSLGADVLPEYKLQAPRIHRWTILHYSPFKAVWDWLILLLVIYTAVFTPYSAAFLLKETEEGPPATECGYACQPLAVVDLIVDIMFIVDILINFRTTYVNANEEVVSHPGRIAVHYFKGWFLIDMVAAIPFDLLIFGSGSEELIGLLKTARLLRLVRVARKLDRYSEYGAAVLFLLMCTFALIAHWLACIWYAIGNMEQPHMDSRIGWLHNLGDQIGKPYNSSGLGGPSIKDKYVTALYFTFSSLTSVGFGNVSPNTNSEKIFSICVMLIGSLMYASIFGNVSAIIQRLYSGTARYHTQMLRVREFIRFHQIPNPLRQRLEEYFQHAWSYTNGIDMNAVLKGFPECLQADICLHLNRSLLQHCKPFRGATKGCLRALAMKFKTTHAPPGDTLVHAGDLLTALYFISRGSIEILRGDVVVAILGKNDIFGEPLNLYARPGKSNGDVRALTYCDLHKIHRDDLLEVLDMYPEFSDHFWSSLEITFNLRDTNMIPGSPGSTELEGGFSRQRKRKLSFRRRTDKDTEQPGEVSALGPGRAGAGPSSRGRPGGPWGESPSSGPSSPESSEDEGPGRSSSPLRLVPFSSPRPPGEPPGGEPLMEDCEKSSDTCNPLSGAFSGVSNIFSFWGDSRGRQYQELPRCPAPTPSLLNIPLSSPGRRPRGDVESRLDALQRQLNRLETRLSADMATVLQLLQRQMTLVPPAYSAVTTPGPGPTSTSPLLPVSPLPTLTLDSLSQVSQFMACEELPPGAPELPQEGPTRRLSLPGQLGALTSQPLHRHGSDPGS

Structure (SMILES)	IC50 at 10 min [1] [nM]	IC50 [2] [nM]	Ki [3] [nM]	Ki [4] [nM]	solubility kinetic at 24 h [5, 10] [µM]	solubility kinetic at 24 h [5, 11] [µM]	Papp A→B at 2 h, 2 μM [7] [×10⁻⁶ cm/s]	half-life at 1 μM [8] [min]	IC50 [9] [nM]	hERG [6] [%]	Ther Window [9]
CNCC[C@@]1(C)CN(Cc2ccc(Nc3ncc(F)c(-c4cc(F)c5nc(C)n(C(C)C)c5c4)n3)nc2)CCO1 [Compound A22, (S)-5-fluoro-4-(4-fluoro-1-isopropyl-2-methyl-1H-benzo[d]imidazol-6-yl)-N-(5-((2-methyl-2-(2-(methylamino)ethyl)morpholino)methyl)pyridin-2-yl)pyrimidin-2-amine]	35800	870	0.52	3.55	15.6 (≈ 8.57 µg/mL)	200 (≈ 110 µg/mL)	0.05	202	80	15.58	10.57
Cc1nc2c(F)cc(-c3nc(Nc4ccc(CN5CCO[C@](C)(CC(=O)N(C)C)C5)cn4)ncc3F)cc2n1C(C)C [Compound A55, (R)-2-(4-((6-((5-fluoro-4-(4-fluoro-1-isopropyl-2-methyl-1H-benzo[d]imidazol-6-yl)pyrimidin-2-yl)amino)pyridin-3-yl)methyl)-2-methylmorpholin-2-yl)-N,N-dimethylacetamide]	20100	900	1.6	11.9		196 (≈ 113 µg/mL)	0.11	5.4	210	26.03	4.33
CC(=O)N1CC[C@@]2(CN(Cc3ccc(Nc4ncc(F)c(-c5cc(F)c6nc(C)n(C(C)C)c6c5)n4)nc3)CCO2)C1 [Compound A36]	23400	910	1.91	10.8	3.28 (≈ 1.89 µg/mL)	200 (≈ 115 µg/mL)	0.59	30.8	250	21.60	3.57
COC(=O)N1CC[C@]2(CN(Cc3ccc(Nc4ncc(F)c(-c5cc(F)c6nc(C)n(C(C)C)c6c5)n4)nc3)CCO2)C1 [Compound A30, methyl (S)-9-((6-((5-fluoro-4-(4-fluoro-1-isopropyl-2-methyl-1H-benzo[d]imidazol-6-yl)pyrimidin-2-yl)amino)pyridin-3-yl)methyl)-6-oxa-2,9-diazaspiro[4.5]decane-2-carboxylate]	30000	990	2.95	16.5	2.52 (≈ 1.49 µg/mL)	200 (≈ 119 µg/mL)	4.6	4.99	110	15.21	9.41
CC(=O)N(C)CC[C@]1(C)CN(Cc2ccc(Nc3ncc(F)c(-c4cc(F)c5nc(C)n(C(C)C)c5c4)n3)nc2)CCO1 [Compound A8, (R)—N-(2-(4-((6-((5-fluoro-4-(4-fluoro-1-isopropyl-2-methyl-1H-benzo[d]imidazol-6-yl)pyrimidin-2-yl)amino)pyridin-3-yl)methyl)-2-methylmorpholin-2-yl)ethyl)-N-methylacetamide]	30900	970	1.76	11.3	128 (≈ 76.1 µg/mL)	200 (≈ 119 µg/mL)	2.35	4.24	170	11.87	5.64
Cc1nc2c(F)cc(-c3nc(Nc4ccc(CN5CCN(C)C(C)(C)C5)cn4)ncc3F)cc2n1C(C)C [Compound A43, 5-fluoro-4-(4-fluoro-1-isopropyl-2-methyl-1H-benzo[d]imidazol-6-yl)-N-(5-((3,3,4-trimethylpiperazin-1-yl)methyl)pyridin-2-yl)pyrimidin-2-amine]	90600	1000	0.77	4.13	8.37 (≈ 4.36 µg/mL)	200 (≈ 104 µg/mL)	0.27	24.2	70	12.12	15.03
COC(=O)N1CC[C@@]2(CN(Cc3ccc(Nc4ncc(F)c(-c5cc(F)c6nc(C)n(C(C)C)c6c5)n4)nc3)CCO2)C1 [Compound A33]	18700	1000	3.42	20.1	2.02 (≈ 1.2 µg/mL)	200 (≈ 119 µg/mL)	3.94	4.73	150	18.72	6.51

Now those with a lower IC50 [2], led by results:

IC50 at 10 min [1] [nM]	IC50 [2] [nM]	Ki [3] [nM]	Ki [4] [nM]	solubility kinetic at 24 h [5, 10] [µM]	solubility kinetic at 24 h [5, 11] [µM]	Papp A→B at 2 h, 2 μM [7] [×10⁻⁶ cm/s]	half-life at 1 μM [8] [min]	IC50 [9] [nM]	Structure (SMILES)	hERG [6] [%]	Ther Window [9]
43300	810	1.6	6.86	109 (≈ 62.9 µg/mL)	197 (≈ 114 µg/mL)	0.39	27	260	CC(=O)N1CC[C@]2(CN(Cc3ccc(Nc4ncc(F)c(-c5cc(F)c6nc(C)n(C(C)C)c6c5)n4)nc3)CCO2)C1 [Compound A37, (S)-1-(9-((6-((5-fluoro-4-(4-fluoro-1-isopropyl-2-methyl-1H-benzo[d]imidazol-6-yl)pyrimidin-2-yl)amino)pyridin-3-yl)methyl)-6-oxa-2,9-diazaspiro[4.5]decan-2-yl)ethan-1-one]	15.08	3.10
35000	730	0.78	5.32	1.13 (≈ 0.608 µg/mL)	200 (≈ 108 µg/mL)	3.25	17.5	70	Cc1nc2c(F)cc(-c3nc(Nc4ccc(CN5CCO[C@@](C)(CCO)C5)cn4)ncc3F)cc2n1C(C)C [Compound A50, (S)-2-(4-((6-((5-fluoro-4-(4-fluoro-1-isopropyl-2-methyl-1H-benzo[d]imidazol-6-yl)pyrimidin-2-yl)amino)pyridin-3-yl)methyl)-2-methylmorpholin-2-yl)ethan-1-ol]	18.96	9.87
30000	460	1.01	5.17	1 (≈ 0.535 µg/mL)	193 (≈ 103 µg/mL)	0.04	126	90	CCC[C@@]1(C)CN(Cc2ccc(Nc3ncc(F)c(-c4cc(F)c5nc(C)n(C(C)C)c5c4)n3)nc2)CCN1 [Compound A47, (S)-5-fluoro-4-(4-fluoro-1-isopropyl-2-methyl-1H-benzo[d]imidazol-6-yl)-N-(5-((3-methyl-3-propylpiperazin-1-yl)methyl)pyridin-2-yl)pyrimidin-2-amine]	21.76	4.96
94000	390	0.46	2.6	15.8	200	0.09	55.2	70	Cc1nc2c(F)cc(-c3nc(Nc4ccc(CN5CCO[C@@](C)(C[C@@H](C)N(C)C)C5)cn4)ncc3F)cc2n1C(C)C [Compound A28, N-(5-(((S)-2-((R)-2-(dimethylamino)propyl)-2-methylmorpholino)methyl)pyridin-2-yl)-5-fluoro-4-(4-fluoro-1-isopropyl-2-methyl-1H-benzo[d]imidazol-6-yl)pyrimidin-2-amine methanesulfonate]	6.78	5.23
